Values after ≈ are worked out from the molar mass of the structure shown.
Key:
S. aureus ATCC 29213 = experiment: MIC, broth macrodilution (CLSI), S. aureus ATCC 29213; format: cell-based, Staphylococcus aureus
Method: (§1) All compounds were tested against American Type Culture Collection (ATCC) reference strains as well as clinical isolates from the Canadian Intensive Care Unit (CAN-ICU) study (Zhanel, et al., 2008). […] Antibacterial activity against Gram-positive and Gram-negative microorganisms was performed via broth macrodilution tests using CLSI methodology (Clinical and Laboratory Standards Institute, 2006). The minimum inhibitory concentration (MIC) in μg/mL of the aminoglycoside-derived amphiphilic polycarbamates and polyethers were determined using established methods (Clinical and Laboratory Standards Institute, 2006) and are shown in Tables 1 and 2, respectively.

E. coli ATCC 25922 = experiment: MIC, broth macrodilution (CLSI), E. coli ATCC 25922; format: cell-based
Method: as §1

[1] = system: Stenotrophomonas maltophilia (CAN-ICU 62585); experiment: MIC, broth macrodilution (CLSI), S. maltophilia; format: cell-based; settings: S. maltophilia, footnote CAN-ICU 62584
Method: as §1

[2] = system: E. coli (Amikacin MIC 32) CAN-ICU 63074; experiment: MIC, broth macrodilution (CLSI), E. coli CAN-ICU 63074; format: cell-based
Method: as §1

[3] = system: Streptococcus pneumoniae ATCC 49619; experiment: MIC, broth macrodilution (CLSI), S. pneumoniae ATCC 49619; format: cell-based
Method: as §1

[4] = system: S. epidermidis ATCC 14990; experiment: MIC, broth macrodilution (CLSI), S. epidermidis; format: cell-based, Staphylococcus epidermidis; settings: for Minimal Inhibitory Concentration (MIC): footnote ATCC 1490
Method: as §1

[5] = system: Acinetobacter baumanni (CAN-ICU 63169); experiment: MIC, broth macrodilution (CLSI), A. baumannii; format: cell-based; settings: A. baumannii CAN-ICU 63169
Method: as §1

[6] = system: Pseudomonas aeruginosa ATCC 27853; experiment: MIC, broth macrodilution (CLSI), P. aeruginosa ATCC 27853; format: cell-based
Method: as §1

S. pneumoniae ATCC 13883 = experiment: MIC, broth macrodilution (CLSI), S. pneumoniae ATCC 13883; format: cell-based
Method: as §1

[7] = system: methicillin-resistant Staphylococcus epidermidis (MRSE) CAN-ICU 61589; experiment: MIC, broth macrodilution (CLSI), MRSE; format: cell-based; settings: methicillin-resistant S. epidermidis, footnote (ATCC 14990)
Method: as §1

[8] = system: methicillin-resistant Staphylococcus aureus (MRSA) ATCC 33592; experiment: MIC, broth macrodilution (CLSI), MRSA ATCC 33592; format: cell-based; settings: MRSA, methicillin-resistant S. aureus ATCC 33592
Method: as §1

[9] = system: P. aeruginosa (Gent-R) CAN-ICU 62308; experiment: MIC, broth macrodilution (CLSI), P. aeruginosa CAN-ICU 62308; format: cell-based, Pseudomonas aeruginosa
Method: as §1

[10] = system: E. coli (Gentamicin-resistant) CAN-ICU 61714; experiment: MIC, broth macrodilution (CLSI), gentamicin-resistant E. coli; format: cell-based; settings: for Minimal Inhibitory Concentration (MIC): footnote ATCC 6174 (gentamicin resistant)
Method: as §1

| Compound | Minimal Inhibitory Concentration (MIC) (S. aureus ATCC 29213) [µg/mL] | Minimal Inhibitory Concentration (MIC) (E. coli ATCC 25922) [µg/mL] | Minimal Inhibitory Concentration (MIC) [1] [µg/mL] | Minimal Inhibitory Concentration (MIC) [2] [µg/mL] | Minimal Inhibitory Concentration (MIC) [3] [µg/mL] | Minimal Inhibitory Concentration (MIC) [4] [µg/mL] | Minimal Inhibitory Concentration (MIC) [5] [µg/mL] | Minimal Inhibitory Concentration (MIC) [6] [µg/mL] | Minimal Inhibitory Concentration (MIC) (S. pneumoniae ATCC 13883) [µg/mL] | Minimal Inhibitory Concentration (MIC) [7] [µg/mL] | Minimal Inhibitory Concentration (MIC) [8] [µg/mL] | Minimal Inhibitory Concentration (MIC) [9] [µg/mL] | Minimal Inhibitory Concentration (MIC) [10] [µg/mL] | also measured |
| --- | --- | --- | --- | --- | --- | --- | --- | --- | --- | --- | --- | --- | --- | --- |
| CN(C)c1ccc(NC(=O)OCC2OC(OC3C(N)CC(N)C(OC4OC(CN)C(OC(=O)Nc5ccc(N(C)C)cc5)C(OC(=O)Nc5ccc(N(C)C)cc5)C4OC(=O)Nc4ccc(N(C)C)cc4)C3OC(=O)Nc3ccc(N(C)C)cc3)C(OC(=O)Nc3ccc(N(C)C)cc3)C(N)C2OC(=O)Nc2ccc(N(C)C)cc2)cc1.O=C(O)C(F)(F)F.O=C(O)C(F)(F)F.O=C(O)C(F)(F)F.O=C(O)C(F)(F)F.O=C(O)C(F)(F)F.O=C(O)C(F)(F)F.O=C(O)C(F)(F)F.O=C(O)C(F)(F)F.O=C(O)C(F)(F)F.O=C(O)C(F)(F)F.O=C(O)C(F)(F)F (stereo not shown) [Compound 7] | 16 | 256 | >256 | 256 | >256 | 16 | >256 | >256 | >256 | 32 | 32 | 256 | 256 | – |
| NCCC(OC(=O)Nc1ccccc1)C(=O)NC1CC(N)C(OC2OC(CN)C(OC(=O)Nc3ccccc3)C(OC(=O)Nc3ccccc3)C2OC(=O)Nc2ccccc2)C(OC(=O)Nc2ccccc2)C1OC1OC(COC(=O)Nc2ccccc2)C(OC(=O)Nc2ccccc2)C(N)C1OC(=O)Nc1ccccc1.O=C(O)C(F)(F)F.O=C(O)C(F)(F)F.O=C(O)C(F)(F)F.O=C(O)C(F)(F)F (stereo not shown) [Compound 8] | 8 | 256 | 128 | 256 | 32 | 2 | 256 | >256 | 256 | 2 | 16 | 256 | 256 | – |
| NCC1OC(OC2C(N)CC(N)C(OC(=O)Nc3ccc(Cl)cc3)C2OC2OC(COC(=O)Nc3ccc(Cl)cc3)C(OC3OC(CN)C(OC(=O)Nc4ccc(Cl)cc4)C(OC(=O)Nc4ccc(Cl)cc4)C3N)C2OC(=O)Nc2ccc(Cl)cc2)C(N)C(OC(=O)Nc2ccc(Cl)cc2)C1OC(=O)Nc1ccc(Cl)cc1.O=C(O)C(F)(F)F.O=C(O)C(F)(F)F.O=C(O)C(F)(F)F.O=C(O)C(F)(F)F.O=C(O)C(F)(F)F.O=C(O)C(F)(F)F (stereo not shown) [Compound 2] | 64 | >256 | 128 | 256 | 128 | 16 | >256 | >256 | 256 | 32 | 64 | 256 | >256 | – |
| Gentamicin [reference compound] | 1 | 1 | >512 | 8 | 4 | 0.25 | 128 | 8 | 0.25 | 32 | 2 | 128 | 128 | – |
| NCCC(OCc1ccc(Cl)cc1)C(=O)NC1CC(N)C(OC2OC(CN)C(OCc3ccc(Cl)cc3)C(OCc3ccc(Cl)cc3)C2OCc2ccc(Cl)cc2)C(OCc2ccc(Cl)cc2)C1OC1OC(COCc2ccc(Cl)cc2)C(OCc2ccc(Cl)cc2)C(N)C1OCc1ccc(Cl)cc1.O=C(O)C(F)(F)F.O=C(O)C(F)(F)F.O=C(O)C(F)(F)F.O=C(O)C(F)(F)F (stereo not shown) [Compound 19] | 128 | >256 | >256 | 256 | 128 | 128 | >256 | >256 | >256 | 64 | 128 | >256 | >256 | – |
| NCC[C@H](O)C(=O)N[C@@H]1C[C@H](N)[C@@H](O[C@H]2O[C@H](CN)[C@@H](O)[C@H](O)[C@H]2O)[C@H](O)[C@H]1O[C@H]1O[C@H](CO)[C@@H](O)[C@H](N)[C@H]1O [Amikacin, reference compound] | – | – | – | – | – | – | – | – | – | – | – | – | – | MIC (S. aureus ATCC 29213; Staphylococcus aureus, ATCC29213, read-out: Minimal Inhibitory Concentration (MIC)): 4 µg/mL (≈ 6.83 µM); MIC (E. coli ATCC 25922; Escherichia coli, ATCC25922, read-out: Minimal Inhibitory Concentration (MIC)): 4 µg/mL (≈ 6.83 µM); MIC ([1]; Stenotrophomonas maltophilia, read-out: Minimal Inhibitory Concentration (MIC)): > 512 µg/mL; MIC ([2]; Escherichia coli, read-out: Minimal Inhibitory Concentration (MIC)): 32 µg/mL (≈ 54.6 µM); MIC ([3]; Streptococcus pneumoniae, ATCC49619, read-out: Minimal Inhibitory Concentration (MIC)): 8 µg/mL (≈ 13.7 µM); MIC ([4]; Staphylococcus epidermidis, ATCC 1490 / ATCC 14990, footnote ATCC 1490, read-out: Minimal Inhibitory Concentration (MIC)): 1 µg/mL (≈ 1.71 µM); MIC ([5]; read-out: Minimal Inhibitory Concentration (MIC)): 128 µg/mL (≈ 219 µM); MIC ([6]; Pseudomonas aeruginosa, ATCC27853, read-out: Minimal Inhibitory Concentration (MIC)): 4 µg/mL (≈ 6.83 µM); MIC (S. pneumoniae ATCC 13883; Streptococcus pneumoniae, ATCC13883, read-out: Minimal Inhibitory Concentration (MIC)): 0.5 µg/mL (≈ 0.854 µM); MIC ([7]; Staphylococcus epidermidis, ATCC 14990 / MRSE, read-out: Minimal Inhibitory Concentration (MIC)): 2 µg/mL (≈ 3.42 µM); MIC ([8]; Staphylococcus aureus, read-out: Minimal Inhibitory Concentration (MIC)): 8 µg/mL (≈ 13.7 µM); MIC ([9]; Pseudomonas aeruginosa, read-out: Minimal Inhibitory Concentration (MIC)): 128 µg/mL (≈ 219 µM); MIC ([10]; Escherichia coli, ATCC6174, footnote ATCC 6174 (gentamicin resistant), read-out: Minimal Inhibitory Concentration (MIC)): 2 µg/mL (≈ 3.42 µM) |
| NC[C@@H]1O[C@H](O[C@H]2[C@@H](O)[C@H](O[C@@H]3[C@@H](O)[C@H](N)C[C@H](N)[C@H]3O[C@H]3O[C@H](CN)[C@@H](O)[C@H](O)[C@H]3N)O[C@@H]2CO)[C@H](N)[C@@H](O)[C@@H]1O [Neomycin B, reference compound] | 1 | 4 | >512 | – | 32 | 0.25 | 64 | 512 | 1 | 0.5 | 256 | 512 | 8 | – |
| NCC1OC(OC2C(N)CC(N)C(OC3OC(COCc4ccc(Cl)cc4)C(OCc4ccc(Cl)cc4)C(N)C3OCc3ccc(Cl)cc3)C2OCc2ccc(Cl)cc2)C(OCc2ccc(Cl)cc2)C(OCc2ccc(Cl)cc2)C1OCc1ccc(Cl)cc1.O=C(O)C(F)(F)F.O=C(O)C(F)(F)F.O=C(O)C(F)(F)F.O=C(O)C(F)(F)F (stereo not shown) [Compound 16] | 32 | 128 | >128 | 64 | 64 | 32 | >128 | >128 | >128 | 16 | 32 | >128 | 128 | – |
